From PubChem BioAssay AID256 (DTP/NCI, 2004)
Where “and” joins values, the source holds several entries; their conditions need not be identical. Equal values may be shown once. Inconclusive results and toxic doses are left out.

Tested on: CD2F1 mice, L1210 leukemia ip, survival T/C
Assay: NCI In Vivo Anticancer Drug Screen. Data for tumor model L1210 Leukemia (intraperitoneal) in CD2F1 (CDF1) mice
Conditions: higher = longer survival
Summary of the method: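 Activity against a transplanted murine tumor was judged by comparing the compound group with a vehicle group. The outcome in the treated animals was divided by that in the controls.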

[1] = endpoint: mean survival time, dose: 25.0 mg/kg/injection, schedule: Q04DX003 (ip), vehicle: saline with Tween-80
[2] = endpoint: mean survival time, dose: 50.0 mg/kg/injection, schedule: Q04DX003 (ip), vehicle: saline with Tween-80
[3] = endpoint: mean survival time, dose: 100.0 mg/kg/injection, schedule: Q04DX003 (ip), vehicle: saline with Tween-80
[4] = endpoint: mean survival time, dose: 200.0 mg/kg/injection, schedule: Q04DX003 (ip), vehicle: saline with Tween-80
[5] = endpoint: mean survival time, dose: 400.0 mg/kg/injection, schedule: Q04DX003 (ip), vehicle: saline with Tween-80
[6] = endpoint: mean survival time, dose: 100.0 mg/kg/injection, schedule: Q04DX002 (ip), vehicle: saline with Tween-80
[7] = endpoint: mean survival time, dose: 200.0 mg/kg/injection, schedule: Q04DX002 (ip), vehicle: saline with Tween-80
[8] = endpoint: mean survival time, dose: 400.0 mg/kg/injection, schedule: Q04DX002 (ip), vehicle: saline with Tween-80
[9] = endpoint: mean survival time, dose: 100.0 mg/kg/injection, schedule: Q01DX001 (ip), vehicle: saline
[10] = endpoint: mean survival time, dose: 200.0 mg/kg/injection, schedule: Q01DX001 (ip), vehicle: saline
[11] = endpoint: mean survival time, dose: 100.0 mg/kg/injection, schedule: Q01DX009 (ip), vehicle: saline with Tween-80
[12] = endpoint: mean survival time, dose: 200.0 mg/kg/injection, schedule: Q01DX009 (ip), vehicle: saline with Tween-80

Structure (SMILES): O=c1c(Cl)c2cc3c(cc2c2ccccc12)nc1ccccc1n3Cc1ccc([N+](=O)[O-])cc1
- T/C (endpoint: mean survival time, dose: 100.0 mg/kg/injection, schedule: Q04DX003 (ip), vehicle: saline): 95 % of control
- T/C (endpoint: mean survival time, dose: 200.0 mg/kg/injection, schedule: Q04DX003 (ip), vehicle: saline): 106 % of control
- T/C (endpoint: mean survival time, dose: 400.0 mg/kg/injection, schedule: Q04DX003 (ip), vehicle: saline): 91 % of control

Structure (SMILES): CCCCCCCCCCCCS
- T/C [1]: 101 % of control
- T/C [2]: 97 % of control
- T/C [3]: 100 % of control and 108 % of control
- T/C [4]: 91 % of control
- T/C [5]: 91 % of control

Structure (SMILES): CC/C=N/NC(=O)c1ccc[n+](C)c1
- T/C [6]: 100 % of control
- T/C [7]: 92 % of control
- T/C [8]: 96 % of control

Structure (SMILES): [I][Pt+2][I].[NH-]CC1CCCC[N-]1 (configuration not stated)
- T/C (endpoint: mean survival time, dose: 3.13 mg/kg/injection, schedule: Q04DX003 (ip), vehicle: distilled water + Tween-80): 98 % of control
- T/C (endpoint: mean survival time, dose: 6.25 mg/kg/injection, schedule: Q04DX003 (ip), vehicle: distilled water + Tween-80): 95 % of control
- T/C (endpoint: mean survival time, dose: 12.5 mg/kg/injection, schedule: Q04DX003 (ip), vehicle: distilled water + Tween-80): 95 % of control
- T/C (endpoint: mean survival time, dose: 25.0 mg/kg/injection, schedule: Q04DX003 (ip), vehicle: distilled water + Tween-80): 104 % of control
- T/C (endpoint: mean survival time, dose: 50.0 mg/kg/injection, schedule: Q04DX003 (ip), vehicle: distilled water + Tween-80): 98 % of control

Structure (SMILES): NCCCN1CCN(c2ccccc2)CC1
- T/C [6]: 92 % of control
- T/C [7]: 92 % of control

Structure (SMILES): COc1ccc(C(=C(CC(=O)O)C(=O)O)c2ccc(OC)cc2)cc1
- T/C [9]: 98 % of control
- T/C [10]: 98 % of control
- T/C (endpoint: mean survival time, dose: 400.0 mg/kg/injection, schedule: Q01DX001 (ip), vehicle: saline): 101 % of control

Structure (SMILES): CCOc1ccc(NC2OC(CO)C(O)C(O)C2O)cc1 (configuration not stated)
- T/C [9]: 100 % of control
- T/C [10]: 108 % of control

Structure (SMILES): CC(=O)Nc1cc(C/C(N)=N/O)cc(NC(C)=O)c1
- T/C [3]: 100 % of control
- T/C [4]: 103 % of control
- T/C [5]: 111 % of control

Structure (SMILES): CCCCCCC(C)NCC(O)COc1cccc(C)c1 (configuration not stated)
- T/C (endpoint: mean survival time, dose: 12.5 mg/kg/injection, schedule: Q04DX002 (ip), vehicle: saline with Tween-80): 101 % of control
- T/C (endpoint: mean survival time, dose: 25.0 mg/kg/injection, schedule: Q04DX002 (ip), vehicle: saline with Tween-80): 96 % of control
- T/C (endpoint: mean survival time, dose: 50.0 mg/kg/injection, schedule: Q04DX002 (ip), vehicle: saline with Tween-80): 93 % of control

Structure (SMILES): Brc1cnc(Br)s1
- T/C (endpoint: mean survival time, dose: 13.0 mg/kg/injection, schedule: Q04DX002 (ip), vehicle: Klucel (hydroxypropylcellulose) (HPC)): 92 % of control
- T/C (endpoint: mean survival time, dose: 20.0 mg/kg/injection, schedule: Q04DX002 (ip), vehicle: Klucel (hydroxypropylcellulose) (HPC)): 98 % of control
- T/C (endpoint: mean survival time, dose: 30.0 mg/kg/injection, schedule: Q04DX002 (ip), vehicle: Klucel (hydroxypropylcellulose) (HPC)): 98 % of control
- T/C (endpoint: mean survival time, dose: 45.0 mg/kg/injection, schedule: Q04DX002 (ip), vehicle: Klucel (hydroxypropylcellulose) (HPC)): 95 % of control

Structure (SMILES): Cn1ncc2c(N)nc(-c3ccccn3)nc21
- T/C (endpoint: mean survival time, dose: 12.5 mg/kg/injection, schedule: Q01DX005 (ip), vehicle: water): 97 % of control
- T/C (endpoint: mean survival time, dose: 25.0 mg/kg/injection, schedule: Q01DX005 (ip), vehicle: water): 94 % of control
- T/C (endpoint: mean survival time, dose: 50.0 mg/kg/injection, schedule: Q01DX005 (ip), vehicle: water): 91 % of control
- T/C (endpoint: mean survival time, dose: 100.0 mg/kg/injection, schedule: Q01DX005 (ip), vehicle: water): 94 % of control

Structure (SMILES): [Br][Ge]([c]1ccccc1)([c]1ccccc1)[c]1ccccc1
- T/C (endpoint: mean survival time, dose: 50.0 mg/kg/injection, schedule: Q01DX009 (ip), vehicle: saline with Tween-80): 91 % of control
- T/C [11]: 91 % of control
- T/C [12]: 86 % of control

Structure (SMILES): CO/N=C/[C@@H](CO)O[C@H](/C=N/OC)n1cnc2c(N)ncnc21
- T/C (endpoint: median survival time, dose: 12.5 mg/kg/injection, schedule: Q01DX005 (ip), vehicle: distilled water + Tween-80): 97 % of control
- T/C (endpoint: median survival time, dose: 25.0 mg/kg/injection, schedule: Q01DX005 (ip), vehicle: distilled water + Tween-80): 100 % of control
- T/C (endpoint: median survival time, dose: 50.0 mg/kg/injection, schedule: Q01DX005 (ip), vehicle: distilled water + Tween-80): 97 % of control
- T/C (endpoint: median survival time, dose: 100.0 mg/kg/injection, schedule: Q01DX005 (ip), vehicle: distilled water + Tween-80): 96 % of control
- T/C (endpoint: median survival time, dose: 200.0 mg/kg/injection, schedule: Q01DX005 (ip), vehicle: distilled water + Tween-80): 100 % of control

Structure (SMILES): Cc1ccc2c(c1)C(c1ccccc1)(c1ccccc1)OC2=O
- T/C [3]: 98 % of control
- T/C [4]: 91 % of control
- T/C [5]: 95 % of control

Structure (SMILES): CCCCSC(=O)Nc1ccccc1
- T/C [6]: 95 % of control
- T/C [7]: 92 % of control
- T/C [8]: 92 % of control

Structure (SMILES): CC[N+]1(C)C2CCC1CC(O)C2 (configuration not stated)
- T/C (endpoint: mean survival time, dose: 100.0 mg/kg/injection, schedule: Q04DX002 (ip), vehicle: saline): 105 % of control
- T/C (endpoint: mean survival time, dose: 200.0 mg/kg/injection, schedule: Q04DX002 (ip), vehicle: saline): 102 % of control

Structure (SMILES): CCCCNCC(=O)O[C@]1(CC)C(=O)OCc2c1cc1n(c2=O)Cc2cc3ccccc3nc2-1
- T/C (endpoint: median survival time, dose: 7.5 mg/kg/injection, schedule: Q04DX002 (ip), vehicle: saline): 109 % of control
- T/C (endpoint: median survival time, dose: 7.5 mg/kg/injection, schedule: Q04HX004 (iv), vehicle: dextrose): 150 % of control
- T/C (endpoint: median survival time, dose: 7.5 mg/kg/injection, schedule: Q04HX004 (iv), vehicle: other): 158 % of control
- T/C (endpoint: median survival time, dose: 15.0 mg/kg/injection, schedule: Q04DX002 (ip), vehicle: saline): 117 % of control and 124 % of control
- T/C (endpoint: median survival time, dose: 15.0 mg/kg/injection, schedule: Q04HX004 (iv), vehicle: dextrose): 172 % of control
- T/C (endpoint: median survival time, dose: 15.0 mg/kg/injection, schedule: Q04HX004 (iv), vehicle: other): 186 % of control
- T/C (endpoint: median survival time, dose: 30.0 mg/kg/injection, schedule: Q04DX002 (ip), vehicle: saline): 158 % of control
- T/C (endpoint: median survival time, dose: 30.0 mg/kg/injection, schedule: Q04HX004 (iv), vehicle: dextrose): 218 % of control
- T/C (endpoint: median survival time, dose: 30.0 mg/kg/injection, schedule: Q04HX004 (iv), vehicle: other): 235 % of control
- T/C (endpoint: median survival time, dose: 40.0 mg/kg/injection, schedule: Q04HX004 (iv), vehicle: other): 247 % of control
- T/C (endpoint: median survival time, dose: 60.0 mg/kg/injection, schedule: Q04DX002 (ip), vehicle: saline): 195 % of control and 212 % of control

Structure (SMILES): Nc1nc(Cl)c2ncn(C3CC(O)C(CO)C3)c2n1 (configuration not stated)
- T/C (endpoint: mean survival time, dose: 100.0 mg/kg/injection, schedule: Q01DX009 (ip), vehicle: saline): 106 % of control
- T/C (endpoint: mean survival time, dose: 200.0 mg/kg/injection, schedule: Q01DX009 (ip), vehicle: saline): 106 % of control

Structure (SMILES): Cc1cc(I)cs1
- T/C [9]: 108 % of control
- T/C [10]: 102 % of control

Structure (SMILES): ClC1=NC(Cl)C(Cl)=N/C1=N\c1ncn[nH]1 (configuration not stated)
- T/C [1]: 96 % of control
- T/C [2]: 95 % of control
- T/C (endpoint: mean survival time, dose: 100.0 mg/kg/injection, schedule: Q04DX003 (ip), vehicle: saline sonified): 93 % of control

Structure (SMILES): CC(C)(C)c1ccc(OS(=O)(=O)c2cccc([N+](=O)[O-])c2)cc1
- T/C [11]: 86 % of control
- T/C [12]: 102 % of control
- T/C (endpoint: mean survival time, dose: 400.0 mg/kg/injection, schedule: Q01DX009 (ip), vehicle: saline with Tween-80): 94 % of control

Structure (SMILES): CC(=O)OCC1C(OC(C)=O)CC2CCC1N2C#N (configuration not stated)
- T/C (endpoint: mean survival time, dose: 50.0 mg/kg/injection, schedule: Q04DX002 (ip), vehicle: Klucel (hydroxypropylcellulose) (HPC)): 107 % of control
- T/C (endpoint: mean survival time, dose: 100.0 mg/kg/injection, schedule: Q04DX002 (ip), vehicle: Klucel (hydroxypropylcellulose) (HPC)): 96 % of control
- T/C (endpoint: mean survival time, dose: 200.0 mg/kg/injection, schedule: Q04DX002 (ip), vehicle: Klucel (hydroxypropylcellulose) (HPC)): 88 % of control and 89 % of control

Structure (SMILES): COn1c(-c2ccccc2)nc2c1C(=O)N(C)CN2C
- T/C (endpoint: mean survival time, dose: 12.5 mg/kg/injection, schedule: Q01DX005 (ip), vehicle: other): 96 % of control
- T/C (endpoint: mean survival time, dose: 25.0 mg/kg/injection, schedule: Q01DX005 (ip), vehicle: other): 96 % of control
- T/C (endpoint: mean survival time, dose: 50.0 mg/kg/injection, schedule: Q01DX005 (ip), vehicle: other): 96 % of control
- T/C (endpoint: mean survival time, dose: 100.0 mg/kg/injection, schedule: Q01DX005 (ip), vehicle: other): 95 % of control
- T/C (endpoint: mean survival time, dose: 200.0 mg/kg/injection, schedule: Q01DX005 (ip), vehicle: other): 96 % of control
